Read-outs that look alike come from different tables or passages of the source.
Tests used:
[1] = tested on: IL-2 secretion from T cells in human whole blood; format: cell-based
[2] = tested on: IFN-g secretion from T cells in human whole blood; format: cell-based
[3] = read-out: WB (IL-2) IC50 (nM, Avg)
[4] = read-out: WB (IFNg) IC50 (nM, Avg)

CC[C@H](C)[C@@H]1NC(=O)[C@@H](NC(=O)[C@H](CO)NC(=O)[C@@H](N)CCCNC(=N)N)CSSC[C@@H](C(=O)O)NC(=O)[C@H]([C@@H](C)O)NC(=O)CNC(=O)[C@@H]2CSSC[C@@H]3NC(=O)[C@H](CCC(N)=O)NC(=O)[C@H](Cc4ccccc4)NC(=O)[C@H](C)NC(=O)[C@H]([C@@H](C)O)NC(=O)[C@H](CSSC[C@H](NC(=O)[C@H](Cc4ccccc4)NC(=O)[C@H](CO)NC(=O)[C@H](CC(C)C)NC(=O)[C@H](CCCNC(=N)N)NC(=O)[C@H](Cc4ccc(O)cc4)NC(=O)[C@H](CCCCN)NC(=O)[C@H](CCSC)NC(=O)[C@H](CO)NC(=O)[C@H](Cc4c[nH]cn4)NC(=O)[C@H](CCCCN)NC3=O)C(=O)N[C@@H](CCCNC(=N)N)C(=O)N[C@@H](CCCCN)C(=O)N[C@@H]([C@@H](C)O)C(=O)N2)NC(=O)[C@H](CCCNC(=N)N)NC(=O)[C@H](CO)NC(=O)[C@H](CCCCN)NC(=O)[C@@H]2CCCN2C(=O)[C@H]([C@@H](C)CC)NC(=O)[C@H]([C@@H](C)O)NC(=O)[C@H](CC(=O)O)NC1=O [ShK(1-35), reference compound]
IC50 ([1]; read-out: WB (IL-2) IC50): 0.067 nM | IC50 [1, 3]: 0.043 nM | IC50 ([2]; read-out: WB (IFNg) IC50): 0.078 nM | IC50 [2, 4]: 0.052 nM

CC[C@H](C)[C@@H]1NC(=O)[C@@H](NC(=O)[C@H](CO)NC(=O)[C@@H](N)CCCNC(=N)N)CSSC[C@@H](C(=O)O)NC(=O)[C@H]([C@@H](C)O)NC(=O)CNC(=O)[C@@H]2CSSC[C@@H]3NC(=O)[C@H](CCC(N)=O)NC(=O)[C@H](Cc4ccccc4)NC(=O)[C@H](C)NC(=O)[C@H](Cc4cccc5ccccc45)NC(=O)[C@H](CSSC[C@H](NC(=O)[C@H](Cc4ccccc4)NC(=O)[C@H](CO)NC(=O)[C@H](CC(C)C)NC(=O)[C@H](CCCNC(=N)N)NC(=O)[C@H](Cc4ccc(O)cc4)NC(=O)[C@H](CCCCN)NC(=O)[C@H](CCSC)NC(=O)[C@H](CO)NC(=O)[C@H](Cc4c[nH]cn4)NC(=O)[C@H](CCCCN)NC3=O)C(=O)N[C@@H](CCCNC(=N)N)C(=O)N[C@@H](CCCCN)C(=O)N[C@@H]([C@@H](C)O)C(=O)N2)NC(=O)[C@H](CCCNC(=N)N)NC(=O)[C@H](CO)NC(=O)[C@H](CCCCN)NC(=O)[C@@H]2CCCN2C(=O)[C@H]([C@@H](C)CC)NC(=O)[C@H]([C@@H](C)O)NC(=O)[C@H](CC(=O)O)NC1=O [[1-Nal13]ShK]
IC50 [1, 3]: 3.56 nM | IC50 [2, 4]: 4.86 nM

CC[C@H](C)[C@@H]1NC(=O)[C@@H](NC(=O)[C@H](CO)NC(=O)[C@@H](N)CCCNC(=N)N)CSSC[C@@H](C(=O)O)NC(=O)[C@H]([C@@H](C)O)NC(=O)CNC(=O)[C@@H]2CSSC[C@@H]3NC(=O)[C@H](CCC(N)=O)NC(=O)[C@H](Cc4ccccc4)NC(=O)[C@H](C)NC(=O)[C@H]([C@@H](C)O)NC(=O)[C@H](CSSC[C@H](NC(=O)[C@H](Cc4ccccc4)NC(=O)[C@H](CO)NC(=O)[C@H](CC(C)C)NC(=O)[C@H](CCCNC(=N)N)NC(=O)[C@H](Cc4ccc(O)cc4)NC(=O)[C@H](CCCCN)NC(=O)[C@H](CCSC)NC(=O)[C@H](CO)NC(=O)[C@H](Cc4c[nH]cn4)NC(=O)[C@H](CCCCN)NC3=O)C(=O)N[C@@H](CCCNC(=N)N)C(=O)N[C@@H](Cc3cccc4ccccc34)C(=O)N[C@@H]([C@@H](C)O)C(=O)N2)NC(=O)[C@H](CCCNC(=N)N)NC(=O)[C@H](CO)NC(=O)[C@H](CCCCN)NC(=O)[C@@H]2CCCN2C(=O)[C@H]([C@@H](C)CC)NC(=O)[C@H]([C@@H](C)O)NC(=O)[C@H](CC(=O)O)NC1=O [[1-Nal30]ShK]
IC50 [1, 3]: 0.082 nM | IC50 [2, 4]: 0.148 nM

CC[C@H](C)[C@@H]1NC(=O)[C@@H](NC(=O)[C@H](CO)NC(=O)[C@@H](N)CCCNC(=N)N)CSSC[C@@H](C(=O)O)NC(=O)[C@H]([C@@H](C)O)NC(=O)CNC(=O)[C@@H]2CSSC[C@@H]3NC(=O)[C@H](CCC(N)=O)NC(=O)[C@H](Cc4ccccc4)NC(=O)[C@H](C)NC(=O)[C@H]([C@@H](C)O)NC(=O)[C@H](CSSC[C@H](NC(=O)[C@H](Cc4ccccc4)NC(=O)[C@H](CO)NC(=O)[C@H](CC(C)C)NC(=O)[C@H](CCCNC(=N)N)NC(=O)[C@H](Cc4ccc(O)cc4)NC(=O)[C@H](CCCCN)NC(=O)[C@H](CCSC)NC(=O)[C@H](CO)NC(=O)[C@H](Cc4c[nH]cn4)NC(=O)[C@H](CCCCN)NC3=O)C(=O)N[C@@H](CCCNC(=N)N)C(=O)N[C@@H](CCCCN)C(=O)N[C@@H]([C@@H](C)O)C(=O)N2)NC(=O)[C@H](C)NC(=O)[C@H](CO)NC(=O)[C@H](CCCCN)NC(=O)[C@@H]2CCCN2C(=O)[C@H]([C@@H](C)CC)NC(=O)[C@H]([C@@H](C)O)NC(=O)[C@H](CC(=O)O)NC1=O [[Ala11]ShK]
IC50 [1, 3]: 1.24 nM | IC50 [2, 4]: 1.9 nM

CC[C@H](C)[C@@H]1NC(=O)[C@@H](NC(=O)[C@H](CO)NC(=O)[C@@H](N)CCCNC(=N)N)CSSC[C@@H](C(=O)O)NC(=O)[C@H]([C@@H](C)O)NC(=O)CNC(=O)[C@@H]2CSSC[C@@H]3NC(=O)[C@H](CCC(N)=O)NC(=O)[C@H](Cc4ccccc4)NC(=O)[C@H](C)NC(=O)[C@H](C)NC(=O)[C@H](CSSC[C@H](NC(=O)[C@H](Cc4ccccc4)NC(=O)[C@H](CO)NC(=O)[C@H](CC(C)C)NC(=O)[C@H](CCCNC(=N)N)NC(=O)[C@H](Cc4ccc(O)cc4)NC(=O)[C@H](CCCCN)NC(=O)[C@H](CCSC)NC(=O)[C@H](CO)NC(=O)[C@H](Cc4c[nH]cn4)NC(=O)[C@H](CCCCN)NC3=O)C(=O)N[C@@H](CCCNC(=N)N)C(=O)N[C@@H](CCCCN)C(=O)N[C@@H]([C@@H](C)O)C(=O)N2)NC(=O)[C@H](CCCNC(=N)N)NC(=O)[C@H](CO)NC(=O)[C@H](CCCCN)NC(=O)[C@@H]2CCCN2C(=O)[C@H]([C@@H](C)CC)NC(=O)[C@H]([C@@H](C)O)NC(=O)[C@H](CC(=O)O)NC1=O [[Ala13]ShK]
IC50 [1, 3]: 0.582 nM | IC50 [2, 4]: 0.954 nM

CC[C@H](C)[C@@H]1NC(=O)[C@@H](NC(=O)[C@H](CO)NC(=O)[C@@H](N)CCCNC(=N)N)CSSC[C@@H](C(=O)O)NC(=O)[C@H]([C@@H](C)O)NC(=O)CNC(=O)[C@@H]2CSSC[C@@H]3NC(=O)[C@H](C)NC(=O)[C@H](Cc4ccccc4)NC(=O)[C@H](C)NC(=O)[C@H]([C@@H](C)O)NC(=O)[C@H](CSSC[C@H](NC(=O)[C@H](Cc4ccccc4)NC(=O)[C@H](CO)NC(=O)[C@H](CC(C)C)NC(=O)[C@H](CCCNC(=N)N)NC(=O)[C@H](Cc4ccc(O)cc4)NC(=O)[C@H](CCCCN)NC(=O)[C@H](CCSC)NC(=O)[C@H](CO)NC(=O)[C@H](Cc4c[nH]cn4)NC(=O)[C@H](CCCCN)NC3=O)C(=O)N[C@@H](CCCNC(=N)N)C(=O)N[C@@H](CCCCN)C(=O)N[C@@H]([C@@H](C)O)C(=O)N2)NC(=O)[C@H](CCCNC(=N)N)NC(=O)[C@H](CO)NC(=O)[C@H](CCCCN)NC(=O)[C@@H]2CCCN2C(=O)[C@H]([C@@H](C)CC)NC(=O)[C@H]([C@@H](C)O)NC(=O)[C@H](CC(=O)O)NC1=O [[Ala16]ShK]
IC50 [1, 3]: 0.058 nM | IC50 [2, 4]: 0.078 nM

CC[C@H](C)[C@@H]1NC(=O)[C@@H](NC(=O)[C@H](CO)NC(=O)[C@@H](N)CCCNC(=N)N)CSSC[C@@H](C(=O)O)NC(=O)[C@H]([C@@H](C)O)NC(=O)CNC(=O)[C@@H]2CSSC[C@@H]3NC(=O)[C@H](CCC(N)=O)NC(=O)[C@H](Cc4ccccc4)NC(=O)[C@H](C)NC(=O)[C@H]([C@@H](C)O)NC(=O)[C@H](CSSC[C@H](NC(=O)[C@H](Cc4ccccc4)NC(=O)[C@H](CO)NC(=O)[C@H](CC(C)C)NC(=O)[C@H](CCCNC(=N)N)NC(=O)[C@H](Cc4ccc(O)cc4)NC(=O)[C@H](CCCCN)NC(=O)[C@H](CCSC)NC(=O)[C@H](CO)NC(=O)[C@H](Cc4c[nH]cn4)NC(=O)[C@H](CCCCN)NC3=O)C(=O)N[C@@H](CCCNC(=N)N)C(=O)N[C@@H](CCCCN)C(=O)N[C@@H]([C@@H](C)O)C(=O)N2)NC(=O)[C@H](CCCCN)NC(=O)[C@H](CO)NC(=O)[C@H](CCCCN)NC(=O)[C@@H]2CCCN2C(=O)[C@H]([C@@H](C)CC)NC(=O)[C@H]([C@@H](C)O)NC(=O)[C@H](CC(=O)O)NC1=O [[Lys11]ShK]
IC50 [1, 3]: 0.095 nM

CC[C@H](C)[C@@H]1NC(=O)[C@@H](NC(=O)[C@H](CO)NC(=O)[C@@H](N)CCCNC(=N)N)CSSC[C@@H](C(N)=O)NC(=O)[C@H]([C@@H](C)O)NC(=O)CNC(=O)[C@@H]2CSSC[C@@H]3NC(=O)[C@H](CCCCN)NC(=O)[C@H](Cc4ccccc4)NC(=O)[C@H](C)NC(=O)[C@H]([C@@H](C)O)NC(=O)[C@H](CSSC[C@H](NC(=O)[C@H](Cc4ccccc4)NC(=O)[C@H](CO)NC(=O)[C@H](CC(C)C)NC(=O)[C@H](CCCNC(=N)N)NC(=O)[C@H](Cc4ccc(O)cc4)NC(=O)[C@H](CCCCN)NC(=O)[C@H](CCSC)NC(=O)[C@H](CO)NC(=O)[C@H](Cc4c[nH]cn4)NC(=O)[C@H](CCCCN)NC3=O)C(=O)N[C@@H](CCCNC(=N)N)C(=O)N[C@@H](CCCCN)C(=O)N[C@@H]([C@@H](C)O)C(=O)N2)NC(=O)[C@H](CCCNC(=N)N)NC(=O)[C@H](CO)NC(=O)[C@H](CCCCN)NC(=O)[C@@H]2CCCN2C(=O)[C@H]([C@@H](C)CC)NC(=O)[C@H]([C@@H](C)O)NC(=O)[C@H](CC(=O)O)NC1=O [[Lys16]ShK-amide]
IC50 ([1]; read-out: WB (IL-2) IC50): 0.1 nM

CC[C@H](C)[C@@H]1NC(=O)[C@@H](NC(=O)[C@H](CO)NC(=O)[C@@H](N)CCCNC(=N)N)CSSC[C@@H](C(=O)O)NC(=O)[C@H]([C@@H](C)O)NC(=O)CNC(=O)[C@@H]2CSSC[C@@H]3NC(=O)[C@H](CCC(N)=O)NC(=O)[C@H](Cc4ccccc4)NC(=O)[C@H](C)NC(=O)[C@H]([C@@H](C)O)NC(=O)[C@H](CSSC[C@H](NC(=O)[C@H](Cc4ccccc4)NC(=O)[C@H](CO)NC(=O)[C@H](CC(C)C)NC(=O)[C@H](CCCCN)NC(=O)[C@H](Cc4ccc(O)cc4)NC(=O)[C@H](CCCCN)NC(=O)[C@H](CCSC)NC(=O)[C@H](CO)NC(=O)[C@H](Cc4c[nH]cn4)NC(=O)[C@H](CCCCN)NC3=O)C(=O)N[C@@H](CCCNC(=N)N)C(=O)N[C@@H](CCCCN)C(=O)N[C@@H]([C@@H](C)O)C(=O)N2)NC(=O)[C@H](CCCNC(=N)N)NC(=O)[C@H](CO)NC(=O)[C@H](CCCCN)NC(=O)[C@@H]2CCCN2C(=O)[C@H]([C@@H](C)CC)NC(=O)[C@H]([C@@H](C)O)NC(=O)[C@H](CC(=O)O)NC1=O [[Lys24]ShK]
IC50 [1, 3]: 0.044 nM

Fc.L20FcLoopShk (scFc): single-chain Fc with ShK inserted in the second Fc domain, 20-residue linker
IC50 ([1]; read-out: In Vitro IC50, whole blood assay (inhibition of IL-2), average results): 2.01 nM
